In patent publication US20200024246A1, “POGOSTONE DERIVATIVES AND METHODS OF USING THE SAME” (Hamyard Associates LLC, priority 2018, published 2020):
Like-named read-outs stand apart in the source and are kept apart here.

Legend:
adult, female mosquitoes = test: Topical application on adult female mosquitoes (24-h mortality, 1-h knockdown); format: in vivo, mosquito; conditions: for ED50: read-out: KD50 (ug/g mosquito); for LD50: read-out: LD50 (ug/g mosquito); for insecticidal properties compared with natural pogostone, natural pyrethrins or terpenoids: words, refers to Table 1
adult female mosquitoes = test: whole plant or invertebrate; conditions: for Percent Mortality: 24 hours; for pest or weed control at 0.5 % / pest or weed control at 1.5 % / mortality at 0.5 % / mortality at 1.5 %: Culicidae; for pest or weed control at 0.5 % / pest or weed control at 1.5 % / mortality at 0.5 % / mortality at 1.5 % / LD50: topical; for pest or weed control at 0.5 % / pest or weed control at 1.5 %: 1 h; for pest or weed control at 0.5 %: read-out: Knockdown at 0.5%; for pest or weed control at 1.5 %: read-out: Knockdown at 1.5%; for mortality at 0.5 % / mortality at 1.5 % / LD50: 24 h; for mortality at 0.5 %: read-out: Mortality at 0.5%; for mortality at 1.5 %: read-out: Mortality at 1.5%; for ranking in knockdown and mortality screenings: words; for LD50: read-out: 24-hour Mortality LD50 (μg/g mosquito)
Experimental: The first group of DHAA-based derivatives that were tested included Formula A2, Formula B3, Formula C3, and Formula D3. A solution of 0.5% or 1.5% of each of these compounds was applied to the mosquitoes, as described above. […] Acetone was used as a control.

house flies = test: Knockdown and mortality of DHAA-based derivatives on house flies; format: in vivo, house fly
Excerpt: Accordingly, further derivatives with structures similar to Formula C3 were synthesized and tested for knockdown potential and mortality in house flies and mosquitoes using an experimental design similar to the one described above. These compounds include Formula C5, Formula C6, Formula C7, Formula C8, Formula C9, and Formula C10.

[1] = system: 3-4 instar Aedes aegypti larvae; test: Mosquito larvicide bioassay; format: in vivo
Experimental: Mosquito larvicide bioassays were performed by introducing various concentrations of test compounds (pyrone derivatives and rotenone) into acetone at various concentrations. 200 uL of these solutions were added to individual cups containing 10, 3-4 instar Aedes aegypti larvae and 25 mL of DI water. 2 mg of Tetramin™ was provided to each cup as a food source. […] Ataxia was used as the indicator of larval mortality. At least 5 concentrations were used which caused between 10 and 90% mortality. LC50 values were calculated using a PROC PROBIT model in SAS 9.4.

[2] = Mosquito Knockdown Properties (1 hour), topical application
[3] = Mosquito Toxicity (24 hours), topical application to pronotum

In the case of `CC(C)CCC(=O)c1c(O)cc(-c2ccccc2)oc1=O` [Formula 9], the ED50 (adult, female mosquitoes; [2]) is reported as > 1500 mg/kg and the LD50 (adult, female mosquitoes; [3]) is reported as > 1500 mg/kg.
With `CCCCC(CC)CNC(=O)c1c(O)cc(C)oc1=O` (stereo not drawn) [Formula B3] the “Percent Knockdown at 1 Hour” value (adult female mosquitoes; mosquitoes, 0.5% solutions) was 2%, the “Percent Mortality” value (adult female mosquitoes; mosquitoes, at 0.5%) was 9% and the “Percent Mortality” value (adult female mosquitoes; mosquitoes, at 1.5%) was 16%.
`C=CCCC(=O)c1cc2ccccc2oc1=O` [Formula 22] was tested, and the LD50 (adult, female mosquitoes; topical, 24 h) was > 1500 mg/kg.
With `CC(C)CCC(=O)c1c(O)cc(C(C)(C)C)oc1=O` [Formula 11] the ED50 (adult, female mosquitoes; [2]) was > 1500 mg/kg and the LD50 (adult, female mosquitoes; [3]) was > 1500 mg/kg.
`CC(C)C(O)CC(=O)c1c(O)c2ccccc2oc1=O` (stereo not drawn) [Formula C25] showed a pest or weed control at 0.5 % (adult female mosquitoes) of 93%, a pest or weed control at 1.5 % (adult female mosquitoes) of 100% and a mortality at 0.5 % (adult female mosquitoes) of 100%. The mortality at 1.5 % (adult female mosquitoes) was 100% and the “ranking in knockdown and mortality screenings” value (shortened to “ranking”) (adult female mosquitoes) was “appear to be the most potent insecticidal compounds”.
`CC(C)CCC(=O)C1=Cc2ccccc2OC1` [Formula 17] was tested, and the ED50 (adult, female mosquitoes; topical, 1 h) was > 1500 mg/kg and the LD50 (adult, female mosquitoes; topical, 24 h) was > 1500 mg/kg.
Compound `Cc1cc2occ(CC(C)C)c(=O)c2c(=O)o1` [Formula C22] has a pest or weed control at 0.5 % (adult female mosquitoes) of 10%, a pest or weed control at 1.5 % (adult female mosquitoes) of 10% and a mortality at 0.5 % (adult female mosquitoes) of 7%. For the same compound, the mortality at 1.5 % (adult female mosquitoes) was 13%.
With `CC(=O)C1=Cc2ccccc2OC1` [Formula 16] the LD50 (adult, female mosquitoes; topical, 24 h) was > 1500 mg/kg.
`Cc1ccc(C(C)C)cc1O` [Carvacrol, reference compound] gave an ED50 (adult, female mosquitoes; topical, 1 h) of 2000 mg/kg, an LD50 (adult, female mosquitoes; topical, 24 h) of 3400 mg/kg and an LD50 (adult female mosquitoes) of 3400 mg/kg.
With `Cc1cc(O)c(C(=O)CC(O)C2CCCCC2)c(=O)o1` (stereo not drawn) [Formula C15] the pest or weed control at 0.5 % (adult female mosquitoes) was 23%, the pest or weed control at 1.5 % (adult female mosquitoes) was 50% and the mortality at 0.5 % (adult female mosquitoes) was 33%. The mortality at 1.5 % (adult female mosquitoes) was 63% and the “ranking” value (adult female mosquitoes) was “appear to be the most potent insecticidal compounds”.
`Cc1cc(O)c(C(=O)COCc2ccccc2)c(=O)o1` [Formula C7] was tested, and the “Mosquito Knockdown at 0.5% concentration” value (adult female mosquitoes; 0.5% concentration) was 10%, the “Mosquito Mortality at 0.5% concentration” value (adult female mosquitoes; 0.5% concentration) was 23% and the “Mosquito Knockdown at 1.5% concentration” value (adult female mosquitoes; 1.5% concentration) was 20%. For the same compound, the “Mosquito Mortality at 1.5% concentration” value (adult female mosquitoes; 1.5% concentration) was 15%, the “House Fly Knockdown at 0.5% concentration” value (house flies; 0.5% concentration) was 2.5% and the “House Fly Mortality at 0.5% concentration” value (house flies; 0.5% concentration) was 13%. The “House Fly Knockdown at 1.5% concentration” value (house flies; 1.5% concentration) was 1% and the “House Fly Mortality at 1.5% concentration” value (house flies; 1.5% concentration) was 9%.
For `Cc1cc(O)c(C(=O)/C=C/C(C)(C)C)c(=O)o1` [Formula C21], the pest or weed control at 0.5 % (adult female mosquitoes) was 3%, the pest or weed control at 1.5 % (adult female mosquitoes) was 7% and the mortality at 0.5 % (adult female mosquitoes) was 0%. The mortality at 1.5 % (adult female mosquitoes) was 0%.
`C=CCCC(=O)c1c(O)cc(C)oc1=O` [Formula C26] was tested, and the pest or weed control at 0.5 % (adult female mosquitoes) was 100%, the pest or weed control at 1.5 % (adult female mosquitoes) was 97% and the mortality at 0.5 % (adult female mosquitoes) was 100%. For the same compound, the mortality at 1.5 % (adult female mosquitoes) was 100% and the “ranking” value (adult female mosquitoes) was “appear to be the most potent insecticidal compounds”.
With `O=C(c1c(O)c2ccccc2oc1=O)C1CCC1` [Formula 27] the ED50 (adult, female mosquitoes; topical, 1 h) was > 1500 mg/kg, the LD50 (adult, female mosquitoes; topical, 24 h) was 28.8 mg/kg and the “insecticidal properties compared with natural pogostone, natural pyrethrins or terpenoids” value (adult, female mosquitoes) was “possessed better insecticidal properties at least as well as natural pyrethrins”. The “1-hour Knockdown EC50 (μg/g mosquito)” value (adult female mosquitoes; in vivo) was >1500 μg/g mosquito and the LD50 (adult female mosquitoes) was 29 mg/kg.
In the case of `CC(C)CCC(=O)C1C(=O)N(C)C(=O)N(C)C1=O` [Formula C24], the pest or weed control at 0.5 % (adult female mosquitoes) is reported as 93%, the pest or weed control at 1.5 % (adult female mosquitoes) is reported as 100% and the mortality at 0.5 % (adult female mosquitoes) is reported as 97%. The mortality at 1.5 % (adult female mosquitoes) was 97% and the “ranking” value (adult female mosquitoes) was “appear to be the most potent insecticidal compounds”.
With `CCOC(=O)/C(C(C)=O)=C(/O)c1ccccc1` [Formula 28] the ED50 (adult, female mosquitoes; topical, 1 h) was > 1500 mg/kg, the LD50 (adult, female mosquitoes; topical, 24 h) was > 1500 mg/kg and the LC50 ([1]; Aedes aegypti, 24 h) was 9.16 mg/L. For the same compound, the “larvicidal properties compared with natural pogostone or rotenone” value ([1]; words) was “possessed better larvicidal properties than natural pogostone”.
`CC(C)C(=O)c1c(O)c2cc(Cl)ccc2oc1=O` [Formula 34] was tested, and the ED50 (adult, female mosquitoes; [2]) was > 1500 mg/kg, the LD50 (adult, female mosquitoes; [3]) was 111 mg/kg and the “insecticidal properties compared with natural pogostone, natural pyrethrins or terpenoids” value (adult, female mosquitoes) was “possessed better insecticidal properties than natural pogostone”.
For `CCC(=O)c1c(O)cc(C)oc1=O` [Formula 7], the ED50 (adult, female mosquitoes; [2]) was > 1500 mg/kg and the LD50 (adult, female mosquitoes; [3]) was > 1500 mg/kg.
`Cc1ccc2oc(=O)c(C(=O)CCC(C)C)c(O)c2c1` [Formula 21] was tested, and the ED50 (adult, female mosquitoes; topical, 1 h) was > 1500 mg/kg and the LD50 (adult, female mosquitoes; topical, 24 h) was 534 mg/kg.
